Test results reported in patent US20110206638A1, “COMPOSITIONS AND METHODS FOR REDUCING THE MUTATION RATE OF VIRUSES” (priority 2010, published 2011).

Key:
Con1 replicon cells = assay: 8-OHG oxidative RNA damage in SgPC2 Con1 replicon cells (ELISA); type: cell-based, human; conditions: for 8-OH-G in Con1 replicon (SgPC2) cells, daily treatment for 2 weeks: 0.1% ethanol, 5 μM acetaldehyde; for 8-OH-G in Con1 replicon (SgPC2) cells, daily treatment for 2 weeks / fold increase in 8-OHG content over the control: 20 μM BSO; for 8-OH-G in SgPC2 cells within 2 days: 0.5% ethanol, BSO; for fold increase in 8-OHG content over the control: 48 hrs, 0.5% (v/v) ethanol, 250 μM NiCl2 daily
Procedure: Total RNA was isolated using Trizol (Invitrogen) and analyzed for 8-OH-guanosine (8-OH-G) by northwestern, as described (Shan X et al. (2003) J. Neurosci. 23:4913-4921). Briefly, RNA was size-fractionated by agarose gel electrophoresis, transferred to a nylon membrane, blocked with 1% BSA, incubated sequentially with monoclonal anti-8-OH-G/dG antibodies (QED Bioscience, Inc.) and then with goat anti-mouse HRP-conjugated secondary antibody (Santa Cruz Biotechnology), and signals were detected, using an ECL kit (Amersham). In addition, RNA was digested with nuclease P1 (Sigma, US Biological) and alkaline phosphatase (Promega) and analyzed for 8-OH-G content using RNA Damage Kit (Cell Biolabs, Inc.), following manufacturer's protocols.
(§1) Total RNA was isolated using Trizol (Invitrogen) and analyzed for 8-OHG by ELISA. Briefly, RNA was incubated with 10 U DNase I (GE Healthcare), 10 U nuclease P1 (Sigma or US Biological), and 10 U alkaline phosphatase (Promega) and analyzed for 8-OHG content with RNA Damage Kit (Cell Biolabs, Inc.) and 8-OHG standards, following manufacturer's protocols.

[1] = tested on: Huh7 cells transfected with JFH1 RNA; assay: 8-OHG oxidative RNA damage in Huh7 cells transfected with JFH1 RNA (ELISA); type: cell-based, human; conditions: 48 hr (0.5% ethanol, 20 μM BSO) and 2 weeks (0.1% ethanol, 20 μM BSO)
Procedure: as §1
HCV induces severe oxidative/nitrosative stress in the host by increasing the generation of reactive species. Thus, JFH1 strain of genotype 2a that supports complete replication cycle of HCV and produces infectious HCV in cell culture was used next to determine whether HCV was sufficient to induce oxidative RNA damage even in the absence of ethanol and BSO. Huh7 cells were transfected with JFH1 RNA and either exposed to 0.5% ethanol (v/v) or 20 μM BSO daily for 48 hrs, or to 0.1% ethanol (v/v) or 20 μM BSO with and without 5 μM dipyridyl or 1 mM GSH ester daily with a change of medium prior to each treatment for 2 weeks.

[2] = tested on: subgenomic HCV replicon of genotype 1b (Con1), NS5A region; assay: NS5A sequencing of HCV RNA, mutation frequency in SgPC2 Con1 replicon cells (Example 1); type: cell-based, Hepatitis C virus; conditions: for dn/ds ratio: control 0.33; for Percentage of sites showing positive selection: control 2.36; for mutation frequency, nucleotide changes per site / amino acid changes per codon: SgPC2 Con1 replicon cells, once daily for 48 hrs, ethanol 0.5%; for mutation frequency, nucleotide changes per site: normalized by T7 baseline
Procedure: Huh7 cell clones (SgPC2 cells) supporting continuous replication of a subgenomic HCV replicon of genotype 1b (Con1 sequence) were used (Choi J. et al. (2004) Hepatology 39:81-89; Blight K J et al. (2000) Science 290:1972). The subgenomic replicons support HCV RNA replication but no virus is formed. The in vitro transcription, transfection of HCV RNA, and Huh7 human hepatoma cell culture were performed by methods known in the art and as previously described (Choi J. et al. (2004) Hepatology 39:81-89; Blight K J et al. (2000) Science 290:1972).
After various treatments, total RNAs were collected using Trizol (Invitrogen). Then, the NS5A region (nt. 4612 to 6013 of Con1 replicon) was reverse transcribed/amplified with AccuScript High Fidelity RT-PCR System (Stratagene). The cDNAs were cloned into pUC19 and sequenced at the Joint Genome Institute (Livermore, Calif.). Sequences were aligned against Con1(S11791) sequence, using BioEdit/MEGA 4.0 Molecular Evolutionary Genetics Analysis software.
To test whether ethanol can increase the mutation rate of HCV, SgPC2 Con1 replicon cells that support genotype 1b subgenomic HCV RNA replication (FIG. 2B) were incubated with ethanol (0.5%), BSO (amplifies the effects of endogenous ROS/RNS by decreasing the level of glutathione in the cell), H2O2 (100 μM), or acetaldehyde (10 μM) once daily for 48 hrs. Then, the RNAs were collected, and the NS5A region (nt. 4612 to 6013 of Con1 replicon) was reverse transcribed/amplified with AccuScript High Fidelity RT-PCR System (Stratagene). Then, the cDNAs were cloned into pUC19 and sequenced at the Joint Genome Institute (Livermore, Calif.). T7 HCV RNA transcript, initially used to transfect the Con1 cells, was also sequenced to assess the basal level of RNA heterogeneity, such as due to any heterogeneity of the DNA template prior to in vitro transcription as well as any errors generated during transcription and RT-PCR cloning. The experiments were focused on NS5A because of its moderate level of diversity and its role in viral replication as well as interferon resistance. Sequences were aligned against Con1(S1179I) sequence, using BioEdit/MEGA 4.0 Molecular Evolutionary Genetics Analysis software.

Row | Structure (SMILES) | 8-OH-G in Con1 replicon (SgPC2) cells, daily treatment for 2 weeks (Con1 replicon cells) | 8-OH-G in SgPC2 cells within 2 days (Con1 replicon cells) | fold increase in 8-OHG content over the control (Con1 replicon cells) | 8-OHG increased by HCV (JFH1) [1] | amino acid changes, fold higher than the control group ([2]; 48 hrs) | nucleotide changes, fold higher than the control group ([2]; 48 hrs) | dn/ds ratio ([2]; 48 hrs) | Percentage of sites showing positive selection ([2]; 48 hrs) | mutation frequency, nucleotide changes per site [2] | amino acid changes per codon [2] | Ts/Tv ratio ([2]; 48 hrs, control approximately 2.7) | location of synonymous and nonsynonymous mutations in NS5A ([2]; SNAP plot against codons, 48 hrs)
1 | CCCCS(=N)(=O)CCC(N)C(=O)O [BSO, L-buthionine-S,R-sulfoximine] | significant increases | increased | 23.4±1.5 fold | exacerbated | ~12 fold | about 4 fold | 0.59 | 6.42% | 6.74×10^−4 nucleotide changes per site | 1.67×10^−3 amino acid changes per codon |  | 
2 | CCO [Ethanol, ethanol] | significant increases | increased | 34.9±1.2 fold | exacerbated | ~24 fold | ~8 fold | 0.76 | 5.14% | 1.33×10^−3 nucleotide changes per site | 3.05×10^−3 amino acid changes per codon | 5.7 | clustered in the C-terminal half of NS5A
